We go through 29 compounds from patent publication US20130029962A1, “Substituted Heteroaromatic Pyrazole-Containing Carboxamide and Urea Compounds as Vanilloid Receptor Ligands” (Gruenenthal GmbH, priority 2011, published 2013).

T1 sequence (Q8NER1 whole entry): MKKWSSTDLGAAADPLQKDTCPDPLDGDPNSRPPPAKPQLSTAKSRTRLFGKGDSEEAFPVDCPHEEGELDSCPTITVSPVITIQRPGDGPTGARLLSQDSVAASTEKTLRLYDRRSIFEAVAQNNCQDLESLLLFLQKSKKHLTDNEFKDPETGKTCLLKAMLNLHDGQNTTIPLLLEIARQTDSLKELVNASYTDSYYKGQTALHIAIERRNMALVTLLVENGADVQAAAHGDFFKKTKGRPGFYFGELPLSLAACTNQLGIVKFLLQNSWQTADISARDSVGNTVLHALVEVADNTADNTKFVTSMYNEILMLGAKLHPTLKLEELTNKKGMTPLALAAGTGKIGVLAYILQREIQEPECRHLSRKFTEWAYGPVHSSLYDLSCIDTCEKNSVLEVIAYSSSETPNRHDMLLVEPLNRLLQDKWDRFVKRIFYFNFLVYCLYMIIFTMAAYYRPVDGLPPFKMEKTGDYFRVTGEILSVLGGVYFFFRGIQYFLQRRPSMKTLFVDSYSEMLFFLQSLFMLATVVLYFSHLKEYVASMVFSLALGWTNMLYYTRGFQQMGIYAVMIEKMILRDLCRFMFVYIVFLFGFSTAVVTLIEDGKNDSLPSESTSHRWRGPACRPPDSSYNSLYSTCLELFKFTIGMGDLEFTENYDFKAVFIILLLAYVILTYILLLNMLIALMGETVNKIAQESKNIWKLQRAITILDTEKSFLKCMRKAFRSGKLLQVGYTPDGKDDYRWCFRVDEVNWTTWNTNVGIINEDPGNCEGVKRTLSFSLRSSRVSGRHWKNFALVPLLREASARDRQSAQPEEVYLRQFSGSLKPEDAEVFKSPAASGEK

The first test addresses T1, vanilloid receptor 1 (VR1/TRPV1 receptor) (Homo sapiens, UniProt Q8NER1).
T1 construct: expressed in transfected cells; host or cells: CHO K1
The experiment in a line: Functional testing on the vanilloid receptor 1 (VR1/TRPV1): FLIPR Ca2+ influx assay, displacement of capsaicin. In kind it is cell-based, human being. Also on record: key to mode of action at VR1/TRPV1 (AG, pAG, NE), Cap: AG=agonist; NE=no effect; pAG=partial agonist. To be noted: 1 μM compound; capsaicin (Cap); human being; read-out: inhibition (as a percentage) at the concentration after @, Cap. The gist of the method: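 Fluo-4 FLIPR Ca2+ influx in CHO K1 cells transfected with human VR1, measuring displacement of 100 nM capsaicin; rat VR1 agonism/antagonism also assessed in rat dorsal root ganglion neurons cultured 2–3 days at 37° C with 25 ng/mL NGF, then loaded with 2 μM Fluo-4.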
Consider `CC(C)(C)c1cc(CNC(=O)Nc2ccc(CS(C)(=O)=O)nc2)n(-c2cccc(Cl)c2)n1` [Example 159, 1-((3-tert-butyl-1-(3-chlorophenyl)-1H-pyrazol-5-yl)methyl)-3-(6-(methylsulfonylmethyl)pyridin-3-yl)urea], for which the inhibition at 1 µM turned out to be 29%.

The same test, now with this note: 5 μM compound; capsaicin (Cap); human being; read-out: inhibition (as a percentage) at the concentration after @, Cap.
With `COCCOc1ccc(NC(=O)NCc2cc(C(C)(C)C)nn2-c2cccc(Cl)c2)cn1` [Example 131, 1-((3-tert-butyl-1-(3-chlorophenyl)-1H-pyrazol-5-yl)methyl)-3-(6-(2-methoxyethoxy)pyridin-3-yl)urea], the inhibition at 5 µM amounted to 83%.
For the compound `COCCOc1ccc(NC(=O)NCc2cc(C(F)(F)F)nn2-c2cccc(Cl)c2)cn1` [Example 132, 1-((1-(3-chlorophenyl)-3-(trifluoromethyl)-1H-pyrazol-5-yl)methyl)-3-(6-(2-methoxyethoxy)pyridin-3-yl)urea], the inhibition at 5 µM came to 45%.
In the case of `CN(CCO)Cc1ccc(NC(=O)NCc2cc(C(F)(F)F)nn2-c2cccc(Cl)c2)cn1` [Example 135, 1-((1-(3-chlorophenyl)-3-(trifluoromethyl)-1H-pyrazol-5-yl)methyl)-3-(6-(((2-hydroxyethyl)(methyl)amino)methyl)pyridin-3-yl)urea], the inhibition at 5 µM is 22%.
In the case of `Cc1nc(CO)ccc1NC(=O)NCc1cc(C(F)(F)F)nn1-c1cccc(Cl)c1` [Example 141, 1-((1-(3-chlorophenyl)-3-(trifluoromethyl)-1H-pyrazol-5-yl)methyl)-3-(6-(hydroxymethyl)-2-methylpyridin-3-yl)urea], the inhibition at 5 µM was 51%.

Staying with this test, now noted: capsaicin (Cap) as stimulus; Ki from IC50 by Cheng-Prusoff; read-out: (f) Ki (human being) [nM] Cap.
For the compound `O=C(NCc1cc(C(F)(F)F)nn1-c1cccc(Cl)c1)Nc1ccc(OCCO)nc1` [Example 133, 1-((1-(3-chlorophenyl)-3-(trifluoromethyl)-1H-pyrazol-5-yl)methyl)-3-(6-(2-hydroxyethoxy)pyridin-3-yl)urea], the Ki was 88 nM.
Same read-out and setting: the same measure for `Cc1ccc(NC(=O)NCc2cc(C(F)(F)F)nn2-c2cccc(Cl)c2)cn1` [Example 136, 1-((1-(3-chlorophenyl)-3-(trifluoromethyl)-1H-pyrazol-5-yl)methyl)-3-(6-methylpyridin-3-yl)urea]: 47 nM; for `Cc1cncc(NC(=O)NCc2cc(C(F)(F)F)nn2-c2cccc(Cl)c2)c1` [Example 137, 1-((1-(3-chlorophenyl)-3-(trifluoromethyl)-1H-pyrazol-5-yl)methyl)-3-(5-methylpyridin-3-yl)urea]: 55 nM.
In the case of `Cc1cc(C)c(NC(=O)NCc2cc(C(F)(F)F)nn2-c2cccc(Cl)c2)cn1` [Example 138, 1-((1-(3-chlorophenyl)-3-(trifluoromethyl)-1H-pyrazol-5-yl)methyl)-3-(4,6-dimethylpyridin-3-yl)urea], the Ki is 90 nM.
Same read-out and setting: the same measure for `CC(C)(C)c1cc(CNC(=O)Nc2ccc(CO)cn2)n(-c2cccc(Cl)c2)n1` [Example 139, 1-((3-tert-butyl-1-(3-chlorophenyl)-1H-pyrazol-5-yl)methyl)-3-(5-(hydroxymethyl)pyridin-2-yl)urea]: 109 nM; for `CC(C(=O)NCc1cc(C(F)(F)F)nn1-c1cccc(Cl)c1)c1cnc(CO)c(F)c1` (stereo not drawn) [Example 142, N-((1-(3-chlorophenyl)-3-(trifluoromethyl)-1H-pyrazol-5-yl)methyl)-2-(5-fluoro-6-(hydroxymethyl)pyridin-3-yl)propanamide]: 1.5 nM; for `Cc1nc(CCO)ccc1NC(=O)NCc1cc(C(F)(F)F)nn1-c1cccc(Cl)c1` [Example 143, 1-((1-(3-chlorophenyl)-3-(trifluoromethyl)-1H-pyrazol-5-yl)methyl)-3-(6-(2-hydroxyethyl)-2-methylpyridin-3-yl)urea]: 84 nM.
With `CC(C)(C)c1cc(CNC(=O)Nc2ccc(C(O)CO)nc2)n(-c2cccc(Cl)c2)n1` (stereo not drawn) [Example 144, 1-((3-tert-butyl-1-(3-chlorophenyl)-1H-pyrazol-5-yl)methyl)-3-(6-(1,2-dihydroxyethyl)pyridin-3-yl)urea], the Ki was found to be 24 nM.
For the compound `O=C(NCc1cc(C(F)(F)F)nn1-c1cccc(Cl)c1)Nc1ccc(C(O)CO)nc1` (stereo not drawn) [Example 145, 1-((1-(3-chlorophenyl)-3-(trifluoromethyl)-1H-pyrazol-5-yl)methyl)-3-(6-(1,2-dihydroxyethyl)pyridin-3-yl)urea], the inhibition constant Ki amounted to 121 nM.
As for `CC(C(=O)NCc1cc(C(F)(F)F)nn1-c1cccc(Cl)c1)c1ccc(NCCO)nc1` (stereo not drawn) [Example 146, N-((1-(3-chlorophenyl)-3-(trifluoromethyl)-1H-pyrazol-5-yl)methyl)-2-(6-(2-hydroxyethylamino)pyridin-3-yl)propanamide], the Ki amounted to 0.6 nM.
Same read-out and setting: the figure for `COCCNc1ccc(C(C)C(=O)NCc2cc(C(F)(F)F)nn2-c2cccc(Cl)c2)cn1` (stereo not drawn) [Example 147, N-((1-(3-chlorophenyl)-3-(trifluoromethyl)-1H-pyrazol-5-yl)methyl)-2-(6-(2-methoxyethylamino)pyridin-3-yl)propanamide] is 18 nM.
The same measure, in the same setting: the figure for `CC(C(=O)NCc1cc(C(F)(F)F)nn1-c1cccc(Cl)c1)c1ccc(N(C)CCO)nc1` (stereo not drawn) [Example 148, N-((1-(3-chlorophenyl)-3-(trifluoromethyl)-1H-pyrazol-5-yl)methyl)-2-(6-((2-hydroxyethyl)(methyl)amino)pyridin-3-yl)propanamide] is 15 nM; for `CC(C(=O)NCc1cc(C(F)(F)F)nn1-c1ccc(F)c(Cl)c1)c1ccc(CCO)nc1` (stereo not drawn) [Example 149, N-((1-(3-chloro-4-fluorophenyl)-3-(trifluoromethyl)-1H-pyrazol-5-yl)methyl)-2-(6-(2-hydroxyethyl)pyridin-3-yl)propanamide] it is 28 nM.
Turning to `CC(C(=O)NCc1cc(C2CC2)nn1-c1cccc(Cl)c1)c1ccc(CCO)nc1` (stereo not drawn) [Example 150, N-((1-(3-chlorophenyl)-3-cyclopropyl-1H-pyrazol-5-yl)methyl)-2-(6-(2-hydroxyethyl)pyridin-3-yl)propanamide], the inhibition constant Ki is 59 nM.
Still for that read-out and setting: the figure for `Cc1cccc(-n2nc(C(F)(F)F)cc2CNC(=O)C(C)c2ccc(CCO)nc2)c1` (stereo not drawn) [Example 151, 2-(6-(2-hydroxyethyl)pyridin-3-yl)-N-((1-m-tolyl-3-(trifluoromethyl)-1H-pyrazol-5-yl)methyl)propanamide] is 49 nM.
The same measure, in the same setting: the figure for `CC(C)(C)c1cc(CNC(=O)Nc2ccc(CCO)nc2)n(-c2cccc(F)c2)n1` [Example 152, 1-((3-tert-butyl-1-(3-fluorophenyl)-1H-pyrazol-5-yl)methyl)-3-(6-(2-hydroxyethyl)pyridin-3-yl)urea] is 85 nM.
As for `COc1cccc(-n2nc(C(C)(C)C)cc2CNC(=O)Nc2ccc(CCO)nc2)c1` [Example 153, 1-((3-tert-butyl-1-(3-methoxyphenyl)-1H-pyrazol-5-yl)methyl)-3-(6-(2-hydroxyethyl)pyridin-3-yl)urea], the inhibition constant (Ki) is 50 nM.
Take `CC(C)(C)c1cc(CNC(=O)Nc2ccc(NCCO)nc2)n(-c2cccc(F)c2)n1` [Example 154, 1-((3-tert-butyl-1-(3-fluorophenyl)-1H-pyrazol-5-yl)methyl)-3-(6-(2-hydroxyethylamino)pyridin-3-yl)urea]: the Ki turned out to be 38 nM.
On to `O=C(NCc1cc(C(F)(F)F)nn1-c1cc(F)cc(F)c1)Nc1ccc(NCCO)nc1` [Example 155, 1-((1-(3,5-difluorophenyl)-3-(trifluoromethyl)-1H-pyrazol-5-yl)methyl)-3-(6-(2-hydroxyethylamino)pyridin-3-yl)urea], for which the Ki came to 35 nM.
Still for that read-out and setting: the same measure for `Cc1cc(-n2nc(C(F)(F)F)cc2CNC(=O)Nc2ccc(NCCO)nc2)ccc1Cl` [Example 156, 1-((1-(4-chloro-3-methylphenyl)-3-(trifluoromethyl)-1H-pyrazol-5-yl)methyl)-3-(6-(2-hydroxyethylamino)pyridin-3-yl)urea]: 29 nM; for `COc1ccc(-n2nc(C(F)(F)F)cc2CNC(=O)Nc2ccc(NCCO)nc2)cc1C` [Example 157, 1-(6-(2-hydroxyethylamino)pyridin-3-yl)-3-((1-(4-methoxy-3-methylphenyl)-3-(trifluoromethyl)-1H-pyrazol-5-yl)methyl)urea]: 112 nM; for `Cc1cc(-n2nc(C(F)(F)F)cc2CNC(=O)Nc2ccc(NCCO)nc2)ccc1F` [Example 158, 1-((1-(4-fluoro-3-methylphenyl)-3-(trifluoromethyl)-1H-pyrazol-5-yl)methyl)-3-(6-(2-hydroxyethylamino)pyridin-3-yl)urea]: 77 nM.
Same read-out and setting: the same measure for `CC(C)(C)c1cc(CNC(=O)Nc2ccc(CO)nc2)n(-c2cccc(F)c2)n1` [Example 160, 1-((3-tert-butyl-1-(3-fluorophenyl)-1H-pyrazol-5-yl)methyl)-3-(6-(hydroxymethyl)pyridin-3-yl)urea]: 75 nM.

Staying with this test, now noted: capsaicin (Cap); human being.
With `COCCOc1ccc(NC(=O)NCc2cc(C(C)(C)C)nn2-c2cccc(Cl)c2)cn1` [Example 131, 1-((3-tert-butyl-1-(3-chlorophenyl)-1H-pyrazol-5-yl)methyl)-3-(6-(2-methoxyethoxy)pyridin-3-yl)urea], the “mode of action at VR1/TRPV1 (AG, pAG, NE), Cap” value is reported as “AG”.
Same read-out and setting: the entry for `O=C(NCc1cc(C(F)(F)F)nn1-c1cccc(Cl)c1)Nc1ccc(CNCCO)nc1` [Example 134, 1-((1-(3-chlorophenyl)-3-(trifluoromethyl)-1H-pyrazol-5-yl)methyl)-3-(6-((2-hydroxyethylamino)methyl)pyridin-3-yl)urea] is “NE”.

Usually Ki stands for a measure of affinity in units of concentration, obtained from inhibition or displacement.
